Results published in US9695155B2, “Herbicidal substituted pyrimidinyloxy benzene compounds” (E. I. DU PONT DE NEMOURS AND COMPANY, priority 2013, dated 2017).

Columns and labels:
[1] = test system: kochia; assay: Test A postemergence; assay type: in vivo, Kochia scoparia
Outline: (§1)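 Injury scores run from 0, no effect, to 100, complete control, judged by eye against untreated plants roughly 10 days after treatment. Chemicals carried a surfactant in a non-phytotoxic solvent and went onto loam–sand soil preemergence or onto one- to two-leaf seedlings postemergence.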

[2] = test system: pigweed; assay: Test A postemergence; assay type: in vivo, Amaranthus retroflexus; conditions: for Plant response rating, Pigweed: 31 g ai/ha, 0 to 100 scale, 0 no effect, 100 complete control
Outline: as §1

[3] = test system: barnyardgrass; assay: Test A preemergence; assay type: in vivo, Echinochloa crus-galli; conditions: for Barnyardgrass plant response rating (0 to 100 scale): 31 g ai/ha; for Plant response rating, Barnyardgrass: 125 g ai/ha, 0 to 100 scale where 0 is no effect and 100 is complete control
Outline: as §1

[4] = test system: wheat; assay: Test A postemergence; assay type: in vivo, Triticum aestivum; conditions: for Plant response rating, Wheat: 31 g ai/ha, 0 to 100 scale, 0 no effect, 100 complete control
Outline: as §1

[5] = test system: barnyardgrass; assay: Test A postemergence; assay type: in vivo, Echinochloa crus-galli
Outline: as §1

[6] = test system: galium; assay: Test A postemergence; assay type: in vivo, Galium aparine
Outline: as §1

[7] = test system: sedge, umbrella; assay: Test B flooded paddy test; assay type: in vivo, Cyperus difformis; conditions: Flood, 250 g ai/ha; 0 to 100 scale where 0 is no effect and 100 is complete control
Outline: (§2)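 Evaluation is visual, against untreated controls, 13 to 15 days after treatment. Before treatment, plants reached the 2-leaf stage; pots were then flooded 3 cm deep, compound was added to the water, and that level was maintained. Ratings run 0 to 100, with 100 meaning complete control.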

[8] = test system: giant foxtail; assay: Test A preemergence; assay type: in vivo, Setaria faberii; conditions: for Foxtail, Giant plant response rating (0 to 100 scale): 31 g ai/ha; for Plant response rating, Foxtail, Giant: 125 g ai/ha, 0 to 100 scale where 0 is no effect and 100 is complete control
Outline: as §1

[9] = test system: ragweed; assay: Test A postemergence; assay type: in vivo, Ambrosia elatior; conditions: for Plant response rating, Ragweed: 31 g ai/ha, 0 to 100 scale, 0 no effect, 100 complete control
Outline: as §1

[10] = test system: Italian ryegrass; assay: Test A postemergence; assay type: in vivo, Lolium multiflorum; conditions: for Plant response rating, Ryegrass, Italian: 31 g ai/ha, 0 to 100 scale, 0 no effect, 100 complete control
Outline: as §1

[11] = test system: Italian ryegrass; assay: Test A preemergence; assay type: in vivo, Lolium multiflorum; conditions: for Ryegrass, Italian plant response rating (0 to 100 scale): 31 g ai/ha; for Plant response rating, Ryegrass, Italian: 125 g ai/ha, 0 to 100 scale where 0 is no effect and 100 is complete control
Outline: as §1

[12] = test system: pigweed; assay: Test A preemergence; assay type: in vivo, Amaranthus retroflexus; conditions: for Pigweed plant response rating (0 to 100 scale): 31 g ai/ha; for Plant response rating, Pigweed: 125 g ai/ha, 0 to 100 scale where 0 is no effect and 100 is complete control
Outline: as §1

[13] = test system: barnyardgrass; assay: Test B flooded paddy test; assay type: in vivo, Echinochloa crus-galli; conditions: Flood, 250 g ai/ha; 0 to 100 scale where 0 is no effect and 100 is complete control
Outline: as §2

[14] = test system: corn; assay: Test A postemergence; assay type: in vivo, Zea mays
Outline: as §1

[15] = test system: kochia; assay: Test A preemergence; assay type: in vivo, Kochia scoparia; conditions: for Kochia plant response rating (0 to 100 scale): 31 g ai/ha; for Plant response rating, Kochia: 125 g ai/ha, 0 to 100 scale where 0 is no effect and 100 is complete control
Outline: as §1

[16] = test system: giant foxtail; assay: Test A postemergence; assay type: in vivo, Setaria faberii
Outline: as §1

[17] = test system: blackgrass; assay: Test A postemergence; assay type: in vivo, Alopecurus myosuroides
Outline: as §1

[18] = test system: Heteranthera limosa; assay: Test B flooded paddy test; assay type: in vivo; conditions: Flood, 250 g ai/ha; 0 to 100 scale where 0 is no effect and 100 is complete control
Outline: as §2

[19] = test system: rice; assay: Test B flooded paddy test; assay type: in vivo, Oryza sativa; conditions: Flood, 250 g ai/ha; 0 to 100 scale where 0 is no effect and 100 is complete control
Outline: as §2

[20] = test system: ragweed; assay: Test A preemergence; assay type: in vivo, Ambrosia elatior; conditions: for Ragweed plant response rating (0 to 100 scale): 31 g ai/ha; for Plant response rating, Ragweed: 125 g ai/ha, 0 to 100 scale where 0 is no effect and 100 is complete control
Outline: as §1

[21] = 31 g ai/ha, 0 to 100 scale, 0 no effect, 100 complete control
[22] = 125 g ai/ha, 0 to 100 scale where 0 is no effect and 100 is complete control

CC(C)Cc1cn(-c2c(F)cccc2Oc2ncc(Cl)cn2)nn1 [Compound 107]
50: Plant response rating, Pigweed [12] | Plant response rating, Blackgrass [17, 22]
10: Barnyardgrass plant response rating (0 to 100 scale) [3] | Plant response rating, Wheat [4] | Plant response rating, Blackgrass [17, 21]
0: Plant response rating, Kochia [1, 21] | Plant response rating, Barnyardgrass [5, 21] | Plant response rating, Ryegrass, Italian [10] | Ryegrass, Italian plant response rating (0 to 100 scale) [11] | Plant response rating, Ryegrass, Italian [11] | Pigweed plant response rating (0 to 100 scale) [12] | Plant response rating, Corn [14, 21] | Kochia plant response rating (0 to 100 scale) [15] | Plant response rating, Kochia [15] | Plant response rating, Rice [19] | Ragweed plant response rating (0 to 100 scale) [20] | Plant response rating, Ragweed [20]
20: Plant response rating, Kochia [1, 22] | Plant response rating, Corn [14, 22] | Plant response rating, Foxtail, Giant [16, 21]
70: Plant response rating, Sedge, Umbrella [7] | Plant response rating, Foxtail, Giant [16, 22]
60: Plant response rating, Barnyardgrass [3]
40: Plant response rating, Pigweed [2] | Plant response rating, Barnyardgrass [5, 22] | Plant response rating, Ducksalad [18]
30: Plant response rating, Galium [6, 21] | Foxtail, Giant plant response rating (0 to 100 scale) [8] | Plant response rating, Ragweed [9] | Plant response rating, Barnyardgrass [13]
80: Plant response rating, Galium [6, 22] | Plant response rating, Foxtail, Giant [8]

Fc1cnc(Oc2cccc(Cl)c2-n2cc(OCC(F)(F)F)cn2)nc1 [Compound 109]
10: Plant response rating, Barnyardgrass [5, 21] | Plant response rating, Ragweed [9] | Plant response rating, Corn [14, 21] | Plant response rating, Foxtail, Giant [16, 21] | Plant response rating, Ragweed [20]
60: Plant response rating, Kochia [1, 22] | Plant response rating, Barnyardgrass [3] | Plant response rating, Barnyardgrass [5, 22] | Plant response rating, Kochia [15]
50: Plant response rating, Galium [6, 21]
100: Pigweed plant response rating (0 to 100 scale) [12] | Plant response rating, Pigweed [12]
90: Plant response rating, Galium [6, 22] | Plant response rating, Foxtail, Giant [8]
40: Plant response rating, Kochia [1, 21] | Plant response rating, Corn [14, 22]
80: Plant response rating, Ducksalad [18]
85: Plant response rating, Sedge, Umbrella [7]
20: Barnyardgrass plant response rating (0 to 100 scale) [3] | Kochia plant response rating (0 to 100 scale) [15] | Plant response rating, Blackgrass [17, 21]
70: Plant response rating, Pigweed [2] | Foxtail, Giant plant response rating (0 to 100 scale) [8] | Plant response rating, Foxtail, Giant [16, 22] | Plant response rating, Blackgrass [17, 22]
0: Plant response rating, Wheat [4] | Plant response rating, Ryegrass, Italian [10] | Ryegrass, Italian plant response rating (0 to 100 scale) [11] | Plant response rating, Ryegrass, Italian [11] | Plant response rating, Barnyardgrass [13] | Plant response rating, Rice [19] | Ragweed plant response rating (0 to 100 scale) [20]

FCc1cccc(Oc2ncc(Cl)cn2)c1-n1cc(C(F)(F)F)cn1 [Compound 119]
95: Plant response rating, Sedge, Umbrella [7] | Plant response rating, Ducksalad [18]
30: Barnyardgrass plant response rating (0 to 100 scale) [3] | Plant response rating, Ragweed [9] | Plant response rating, Ryegrass, Italian [10] | Plant response rating, Foxtail, Giant [16, 21]
50: Plant response rating, Corn [14, 22] | Kochia plant response rating (0 to 100 scale) [15]
10: Plant response rating, Wheat [4] | Ryegrass, Italian plant response rating (0 to 100 scale) [11] | Plant response rating, Corn [14, 21]
100: Plant response rating, Galium [6, 22] | Plant response rating, Foxtail, Giant [8] | Pigweed plant response rating (0 to 100 scale) [12] | Plant response rating, Pigweed [12] | Plant response rating, Kochia [15]
60: Plant response rating, Ragweed [20]
0: Ragweed plant response rating (0 to 100 scale) [20]
40: Plant response rating, Barnyardgrass [5, 21] | Plant response rating, Barnyardgrass [13] | Plant response rating, Blackgrass [17, 21]
25: Plant response rating, Rice [19]
70: Plant response rating, Kochia [1, 21] | Plant response rating, Pigweed [2] | Plant response rating, Barnyardgrass [5, 22] | Plant response rating, Galium [6, 21] | Plant response rating, Blackgrass [17, 22]
80: Plant response rating, Ryegrass, Italian [11] | Plant response rating, Foxtail, Giant [16, 22]
90: Plant response rating, Kochia [1, 22] | Plant response rating, Barnyardgrass [3] | Foxtail, Giant plant response rating (0 to 100 scale) [8]

COc1cnn(-c2c(F)cccc2Oc2ncc(Cl)cn2)c1 [Compound 121]
40: Kochia plant response rating [1, 22] | Pigweed plant response rating [2, 22] | Ragweed plant response rating [9, 22]
50: Plant response rating, Foxtail, Giant [8]
45: Plant response rating, Ducksalad [18]
10: Plant response rating, Pigweed [2] | Plant response rating, Galium [6, 21] | Foxtail, Giant plant response rating (0 to 100 scale) [8] | Plant response rating, Ragweed [9] | Corn plant response rating [14, 22] | Plant response rating, Blackgrass [17, 21] | Plant response rating, Ragweed [20]
0: Barnyardgrass plant response rating (0 to 100 scale) [3] | Plant response rating, Wheat [4] | Wheat plant response rating [4, 22] | Plant response rating, Barnyardgrass [5, 21] | Plant response rating, Sedge, Umbrella [7] | Plant response rating, Ryegrass, Italian [10] | Ryegrass, Italian plant response rating [10, 22] | Ryegrass, Italian plant response rating (0 to 100 scale) [11] | Plant response rating, Ryegrass, Italian [11] | Plant response rating, Corn [14, 21] | Kochia plant response rating (0 to 100 scale) [15] | Plant response rating, Foxtail, Giant [16, 21] | Plant response rating, Rice [19] | Ragweed plant response rating (0 to 100 scale) [20]
30: Plant response rating, Barnyardgrass [3] | Galium plant response rating [6, 22] | Foxtail, Giant plant response rating [16, 22] | Blackgrass plant response rating [17, 22]
90: Plant response rating, Pigweed [12]
20: Plant response rating, Kochia [1, 21] | Barnyardgrass plant response rating [5, 22] | Plant response rating, Barnyardgrass [13]
60: Pigweed plant response rating (0 to 100 scale) [12] | Plant response rating, Kochia [15]
